Assay results published in patent US11273172B2, “Synergistic combination of oligonucleotides and chemotherapeutic for treating cancer” (THE BOARD OF TRUSTEES OF THE UNIVERSITY OF ILLINOIS, priority 2017, dated 2022).

What was measured:
[1] = system: JIMT1 breast cancer cells; experiment: MTT cell death assay, chemotherapeutic with and without MADD siRNA knockdown; assay type: cell-based; conditions: Doxorubicin 0.075 μM, siRNA 10 nM, 24 hours post Doxorubicin treatment
Protocol: (§1) Cells are cultured and maintained at 37° C. in a humidified atmosphere containing 5% CO2 as described above. On Day 0, Cells are seeded in […] tissue culture dishes (Corning; Cat Number: 353003) to attain 60-70% confluence. In parallel, cells are also seeded in one 96-well plate (Corning; Cat number: 353072) for analysis of survival before reseeding. After 12-18 hours (Day 1), cells are transfected with Scramble or MADD siRNA at 10 nM concentration. The sequences of siRNAs (double stranded) used are:
(§2) On Day 4, when cells are properly adhered and retained their shape in 96-well plates, drugs are added. Doxorubicin was added at a working concentration of 5.0 nM, 9.375 nM, 0.075 μM, 0.25 μM, 0.5 μM, and 0.8 μM. All drugs are diluted in complete media on the same day prior to the addition to the cells. In untreated cells, media is replaced with complete media. Two hundred μl volume of media (with or without drugs) is used for the drug treatment assay. Plates are incubated 24 hours, 48 hours and 72 hours at 37° C. in humidified CO2 incubator.
(§3) An MTT assay is performed to determine relative survival after drug treatment as described above. MTT (3-[4,5-Dimethylthiazol-2-yl]-2,5-diphenyltetrazolium bromide; Thiazolyl blue) is purchased from Sigma Aldrich (Cat number: M5655). MTT is dissolved in sterile DPBS at the concentration of 5 mg/ml and filtered through […] syringe filter (Corning; Cat number: 431220). Ten μl of MTT solution is added per well of 96-well plate. Plates are incubated for 2 hours at 37° C. in the humidified CO2 incubator. After 2 hours, media is aspirated using vacuum inside the biosafety hood. Purple colored crystals formed in viable cells are dissolved by adding 100 μl of Dimethyl sulfoxide (Thermo Fisher Scientific; Cat number D128-500). Plates are kept on shaker for 10 minutes for compete dissolution of crystals and absorbance is recorded at 595 nm using Bio-Rad iMark microplate reader. Data is analyzed in MICROSOFT EXCEL® software. Relative survival is calculated with respect to absorbance of control (untreated cells) to determine the effect of transfection as well as combination treatment.
(§4) Each data set takes into account any spontaneous cell death which is observed upon transfection with Scramble siRNA; the amount of spontaneous cell death from Scramble siRNA transfection (baseline) is subtracted from the amount of cell death observed in each siRNA transfection reaction to yield a Net Percent (Net %) cell death after accounting for Scrambled siRNA-induced cell death.

[2] = system: N87 gastric carcinoma cells; experiment: as above; assay type: cell-based; conditions: Doxorubicin 0.8 μM, siRNA 10 nM, 72 hours post Doxorubicin treatment
Protocol: as §1, §2, §3, §4

Substance | Observed % Cell death [1] | Observed % Cell death [2] | Net % cell death after accounting for Scrambled siRNA [1] | Net % cell death after accounting for Scrambled siRNA [2]
MADD siRNA: siRNA targeting exon 13L of the MADD splice variant of the IG20 gene; SEQ ID NO: 4, 5′-GAUUGUCAUAGAUUCGCCGTT-3′ (chemistry not given here) | 59% | 21% |  | 
Scrambled siRNA: non-specific Scramble siRNA, negative control; SEQ ID NO: 5, 5′-UUGCUAAGCGUCGGUCAAUTT-3′ (chemistry not given here) | 33% | 14% | 33 − 33 = 0% | 14 − 14 = 0%
